According to PMC6859627, “Growth of the facultative chemolithoautotroph Ralstonia eutropha on organic waste materials: growth characteristics, redox regulation and hydrogenase activity” (Microbial Cell Factories, 2019):

Key:
[1] = target: T1, FOF1-ATPase (FOF1-ATP synthase) (Cupriavidus necator, UniProt Q0K5M2); assay: phosphate release from ATP by membrane vesicles; assay type: biochemical; details: 5 mM ATP, 1 mM MgSO4, 50 mM Tris-HCl pH 7.0, 30 °C; 10 min preincubation; FN-grown cells; overall ATPase activity of vesicles
T1 construct: gene atpE; native complex in membrane vesicles (osmotic lysis), not purified; FOF1 share defined by DCCD sensitivity; with ATP synthase subunit a; ATP synthase subunit b; ATP synthase subunit alpha; ATP synthase subunit beta; ATP synthase gamma chain; ATP synthase subunit delta; ATP synthase epsilon chain

[2] = target: T2, SH (cytoplasmic, soluble hydrogenase) (Cupriavidus necator, UniProt P22317); assay: H2-dependent NAD+ reduction at […] nm, soluble extract; assay type: biochemical; details: 1 mM NAD+, H2-saturated 50 mM Tris/HCl pH 8.0, anaerobic, 30 °C
T2 construct: gene hoxF; native enzyme in soluble protein fraction of cell extract; hetero-hexamer HoxHYFUI2; with NAD-reducing hydrogenase HoxS subunit beta; NAD-reducing hydrogenase HoxS subunit gamma; NAD-reducing hydrogenase HoxS subunit delta; NAD-reducing hydrogenase subunit HoxI
T2 sequence (P22317 whole entry): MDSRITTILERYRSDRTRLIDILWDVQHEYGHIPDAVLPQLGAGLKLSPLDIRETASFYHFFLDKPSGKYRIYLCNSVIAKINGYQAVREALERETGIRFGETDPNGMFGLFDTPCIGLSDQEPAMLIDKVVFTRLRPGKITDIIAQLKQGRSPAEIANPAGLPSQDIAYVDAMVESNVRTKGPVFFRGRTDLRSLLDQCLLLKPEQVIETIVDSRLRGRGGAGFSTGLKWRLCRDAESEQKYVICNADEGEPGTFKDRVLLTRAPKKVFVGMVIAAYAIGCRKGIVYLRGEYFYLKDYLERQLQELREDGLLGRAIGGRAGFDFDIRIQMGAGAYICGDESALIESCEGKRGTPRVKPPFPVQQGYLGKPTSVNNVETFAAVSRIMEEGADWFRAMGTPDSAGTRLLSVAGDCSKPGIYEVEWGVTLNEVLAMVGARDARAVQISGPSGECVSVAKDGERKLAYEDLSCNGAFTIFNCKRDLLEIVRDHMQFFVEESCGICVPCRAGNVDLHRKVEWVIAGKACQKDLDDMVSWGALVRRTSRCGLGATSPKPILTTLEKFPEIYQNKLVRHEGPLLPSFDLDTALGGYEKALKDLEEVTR
T2 sequence (P22318 2-234 partner): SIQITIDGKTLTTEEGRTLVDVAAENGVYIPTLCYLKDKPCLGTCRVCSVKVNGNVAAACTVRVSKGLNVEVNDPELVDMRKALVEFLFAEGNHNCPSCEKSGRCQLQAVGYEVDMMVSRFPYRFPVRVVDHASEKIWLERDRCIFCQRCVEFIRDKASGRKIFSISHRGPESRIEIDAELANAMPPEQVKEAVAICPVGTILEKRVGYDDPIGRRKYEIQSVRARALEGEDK
T2 sequence (P22319 whole entry partner): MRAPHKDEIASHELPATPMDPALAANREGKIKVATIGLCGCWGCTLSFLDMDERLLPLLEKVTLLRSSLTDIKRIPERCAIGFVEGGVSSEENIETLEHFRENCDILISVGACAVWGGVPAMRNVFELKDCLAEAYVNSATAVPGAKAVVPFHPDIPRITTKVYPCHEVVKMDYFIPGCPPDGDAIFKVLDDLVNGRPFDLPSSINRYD
T2 sequence (P22320 2-464 partner): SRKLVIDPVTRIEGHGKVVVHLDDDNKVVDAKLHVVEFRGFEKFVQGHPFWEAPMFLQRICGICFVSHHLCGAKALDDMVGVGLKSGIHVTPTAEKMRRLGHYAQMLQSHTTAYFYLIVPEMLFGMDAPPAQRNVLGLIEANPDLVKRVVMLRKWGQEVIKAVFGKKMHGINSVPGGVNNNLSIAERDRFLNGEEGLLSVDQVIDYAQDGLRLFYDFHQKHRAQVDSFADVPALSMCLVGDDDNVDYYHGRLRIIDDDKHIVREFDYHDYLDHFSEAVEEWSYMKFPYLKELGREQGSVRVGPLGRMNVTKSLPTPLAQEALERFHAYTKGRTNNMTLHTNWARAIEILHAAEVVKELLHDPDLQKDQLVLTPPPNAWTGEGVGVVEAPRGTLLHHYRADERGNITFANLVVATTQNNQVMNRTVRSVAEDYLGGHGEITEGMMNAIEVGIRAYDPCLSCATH

| Compound | fold inhibition at 0.2 mM [1] | H2-dependent NAD+ reduction at 365 nm, soluble extract [2] |
| --- | --- | --- |
| C(=NC1CCCCC1)=NC1CCCCC1 [DCCD, N,N′-dicyclohexylcarbodiimide] | ~ 2.3 fold |  |
| NC(=O)c1ccc[n+]([C@@H]2O[C@H](COP(=O)(O)OP(=O)(O)OC[C@H]3O[C@@H](n4cnc5c(N)ncnc54)[C@H](O)[C@@H]3O)[C@@H](O)[C@H]2O)c1 [NAD^+] |  | hydrogen-oxidizing activity of SH was measured in anaerobic cuvettes with NAD^+ |
